In ChEMBL document CHEMBL1250548, “Synthesis and anti-HIV-1 evaluation of phosphonates which mimic the 5'-monophosphate of 4'-branched 2',3'-didehydro-2',3'-dideoxy nucleosides” (Bioorg Med Chem, 2010) one finds IC50 and CC50 data, which are given here for 5 molecules.

Series [1] concerns Human immunodeficiency virus 1. Put plainly: Antiviral activity against HIV1 infected in human MT4 cells assessed as protection against virus-induced cytopathic effect. Conditions: Human immunodeficiency virus 1, MT4. Type of series: functional, organism-based.
A short description of series [2]: Cytotoxicity against human MT4 cells assessed as reduction of cell viability. Type of series: cell-based.

By IC50 is commonly meant the concentration needed to halve the response being measured. One may read the CC50 as the concentration giving 50% cytotoxicity. Regarding `Cc1cn([C@H]2C=C[C@@H](CO)O2)c(=O)[nH]c1=O` [STAVUDINE], in series [1], the IC50 was 1.2 µM. In addition, the CC50 in series [2] was over 600 µM.
The like results for `C#C[C@@]1(OCP(=O)(O)O)C=C[C@H](n2cnc3c(N)ncnc32)O1` were, in that order, 1.69 µM and over 100 µM.
As to `C#C[C@@]1(OCP(=O)(O)O)C=C[C@H](n2cc(C)c(=O)[nH]c2=O)O1`, the IC50 in series [1] was over 100 µM. Besides, the CC50 in series [2] is over 100 µM.
Regarding `Cc1cn([C@H]2C=C[C@@H](OCP(=O)(O)O)O2)c(=O)[nH]c1=O`, the IC50 in series [1] turned out to be 12 µM. Moreover, in series [2], the CC50 is over 600 µM.
For the molecule `Nc1ncnc2c1ncn2[C@H]1C=C[C@@H](OCP(=O)(O)O)O1`, the IC50 in series [1] came out at 1.5 µM. Moreover, the CC50 in series [2] is over 600 µM.
